Assay results published in PMC8444262, “α-Mangostin Induces Apoptosis and Inhibits Metastasis of Breast Cancer Cells via Regulating RXRα-AKT Signaling Pathway” (Frontiers in Pharmacology, 2021).

Target: T1, RXRα (Homo sapiens, UniProt P19793)
T1 construct: gene RXRA; RXRα-LBD
T1 sequence (P19793 198-462): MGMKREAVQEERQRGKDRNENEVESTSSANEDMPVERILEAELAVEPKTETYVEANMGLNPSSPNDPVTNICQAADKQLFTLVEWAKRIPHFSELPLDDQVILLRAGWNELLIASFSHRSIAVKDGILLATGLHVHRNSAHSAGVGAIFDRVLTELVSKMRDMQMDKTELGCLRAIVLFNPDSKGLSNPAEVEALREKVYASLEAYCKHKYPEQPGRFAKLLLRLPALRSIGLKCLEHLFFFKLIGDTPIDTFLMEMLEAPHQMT
Experiment: SPR (Biacore S200, immobilized RXRα-LBD); supported by antagonism of 9-cis-RA in GAL4-RXRα-LBD reporter assay
Assay type: binding

COc1c(O)cc2oc3cc(O)c(CC=C(C)C)c(O)c3c(=O)c2c1CC=C(C)C [compound 3, α-Mangostin]
Kd: 39 µM
